Laboratory results as given in article PMC6784244 (Toxins, 2019).

Settings: pH 7.4
In the case of CC(C)[C@H]1OC(=O)[C@H](Cc2ccccc2)N(C)C(=O)[C@@H](C(C)C)OC(=O)[C@H](Cc2ccccc2)N(C)C(=O)[C@@H](C(C)C)OC(=O)[C@H](Cc2ccccc2)N(C)C1=O [BEA, Beauvericin], the “critical pressure of insertion, Cardiolipin” value (“critical pressure of insertion” below) is reported as “--”. For CC[C@H](C)[C@H]1C(=O)O[C@H](C(C)C)C(=O)N(C)[C@@H]([C@@H](C)CC)C(=O)O[C@H](C(C)C)C(=O)N(C)[C@@H](C(C)C)C(=O)O[C@H](C(C)C)C(=O)N1C [ENN A1], the “critical pressure of insertion” value was 48.57 mN/m. With CC[C@H](C)[C@H]1C(=O)O[C@H](C(C)C)C(=O)N(C)[C@@H]([C@@H](C)CC)C(=O)O[C@H](C(C)C)C(=O)N(C)[C@@H]([C@@H](C)CC)C(=O)O[C@H](C(C)C)C(=O)N1C [ENN A] the “critical pressure of insertion” value was 49.72 mN/m. In the case of CC[C@H](C)[C@H]1C(=O)O[C@H](C(C)C)C(=O)N(C)[C@@H](C(C)C)C(=O)O[C@H](C(C)C)C(=O)N(C)[C@@H](C(C)C)C(=O)O[C@H](C(C)C)C(=O)N1C [ENN B1], the “critical pressure of insertion” value is reported as 43.51 mN/m. In the case of CC(C)[C@H]1C(=O)O[C@H](C(C)C)C(=O)N(C)[C@@H](C(C)C)C(=O)O[C@H](C(C)C)C(=O)N(C)[C@@H](C(C)C)C(=O)O[C@H](C(C)C)C(=O)N1C [ENN B], the “critical pressure of insertion” value is reported as 33.29 mN/m.
